Results as given in patent publication US20110201818A1, “POLO-LIKE KINASE INHIBITORS” (TAKEDA PHARMACEUTICAL COMPANY LIMITED, priority 2007, published 2011).

Biological target: T1, human PLK1 (Homo sapiens, UniProt P53350)
T1 construct: FLAG (DYKDDDDK) (N); made in house; host or cells: Sf21 insect cells, recombinant baculovirus (pFASTBAC1, Bac-to-Bac)
Assay: PLK1 in vitro enzymatic activity assay (phosphorylation of alpha casein by recombinant PLK1)
Assay type: biochemical
Conditions: recombinant FLAG-tagged PLK1, alpha casein substrate, 500 nmol/L ATP, 40 min at room temperature; read-out: pIC50 (PLK1) (converted)
Procedure: PCR was performed using the vector as a template. […] After XbaI and XhoI digestion of the PCR product, the fragment was subcloned into pFASTBAC1 (Invitrogen, USA). Recombinant baculoviruses were prepared according to the procedure of the Bac-to-Bac baculovirus expression system (Invitrogen, USA). Sf21 cells were purchased from Invitrogen and grown in Sf-900 II SFM medium containing 10% fetal bovine serum, 50 μg/mL gentamicin and 0.1% pluronic F-68 (Invitrogen, USA) at 28° C. For preparation of PLK1 enzyme, Sf21 cells were infected with recombinant baculoviruses and cultured at 28° C. for 72 h.
The inhibition of PLK1 by the compounds was determined with the following assay that measures the phosphorylation of alpha casein by recombinant PLK1. Kinase reactions were performed at room temperature for 40 min in the kinase reaction buffer (25 mmol/L HEPES, pH 7.5, 10 mmol/L magnesium acetate, 1 mmol/L dithiothreitol) containing 50 ng PLK1 enzyme, 0.1 μCi [γ-^32P]ATP, 500 nmol/L ATP and 3 μg alpha casein (MP Biomedicals Inc., USA) in a final volume of 50 μL. The incubation was terminated by the addition of 10% trichloroacetic acid (Wako, Japan). Phosphorylated proteins were filtrated in GF/C filter plates (Packard, USA) with a Cell harvester (Packard, USA) and washed out free [γ-^32P]-ATP with 250 mmol/L phosphoric acid. Then, the plates were air dried for 60 min at 45° C., followed by the addition of 20 μL of MicroScint-O (Packard, USA). The radioactivity was counted by a Top-count scintillation counter (Packard, USA).

T1 sequence (P53350 with tags, fused parts or gaps): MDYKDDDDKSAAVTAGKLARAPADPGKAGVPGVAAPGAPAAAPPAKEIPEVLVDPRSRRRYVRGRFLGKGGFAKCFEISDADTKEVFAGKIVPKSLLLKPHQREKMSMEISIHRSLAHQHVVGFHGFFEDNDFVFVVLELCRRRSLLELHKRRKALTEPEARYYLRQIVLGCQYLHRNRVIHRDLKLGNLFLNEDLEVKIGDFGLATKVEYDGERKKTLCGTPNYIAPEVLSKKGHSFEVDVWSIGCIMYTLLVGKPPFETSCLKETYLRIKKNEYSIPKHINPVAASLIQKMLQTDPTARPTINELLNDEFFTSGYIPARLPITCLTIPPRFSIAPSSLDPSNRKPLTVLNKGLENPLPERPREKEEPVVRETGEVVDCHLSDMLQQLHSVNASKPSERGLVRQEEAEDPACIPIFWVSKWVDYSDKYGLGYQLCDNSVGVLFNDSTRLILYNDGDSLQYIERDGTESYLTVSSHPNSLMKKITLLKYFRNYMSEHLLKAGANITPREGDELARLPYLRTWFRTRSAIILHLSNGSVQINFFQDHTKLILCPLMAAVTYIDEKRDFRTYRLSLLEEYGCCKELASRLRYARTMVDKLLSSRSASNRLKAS

For `COc1cc(C(=O)N[C@@H]2CCCC[C@@H]2O)ccc1Nc1ncc2c(n1)N(C1CCCCC1)CC(F)(F)C(=O)N2C` (racemic) [Compound 47, 4-(9-cyclohexyl-7,7-difluoro-5-methyl-6-oxo-6,7,8,9-tetrahydro-5H-pyrimido[4,5-b][1,4]diazepin-2-ylamino)-N-((cis)-2-hydroxycyclohexyl)-3-methoxybenzamide], the IC50 was ≤ 2 nM.
`COc1cc(C(=O)N[C@@H]2CCCC[C@H]2O)ccc1Nc1ncc2c(n1)N(C1CCCCC1)CC(F)(F)C(=O)N2C` (racemic) [Compound 48, 4-(9-cyclohexyl-7,7-difluoro-5-methyl-6-oxo-6,7,8,9-tetrahydro-5H-pyrimido[4,5-b][1,4]diazepin-2-ylamino)-N-((trans)-2-hydroxycyclohexyl)-3-methoxybenzamide] was tested, and the IC50 was ≤ 2 nM.
With `COc1cc(C(=O)NC2CC2)ccc1Nc1ncc2c(n1)N(C1CCCC1)CC(F)(F)C(=O)N2C` [Compound 2, 4-(9-cyclopentyl-7,7-difluoro-5-methyl-6-oxo-6,7,8,9-tetrahydro-5H-pyrimido[4,5-b][1,4]diazepin-2-ylamino)-N-cyclopropyl-3-methoxybenzamide] the IC50 was > 2 nM.
In the case of `COc1cc(C(=O)NC2CCN(CCO)CC2)ccc1Nc1ncc2c(n1)N(C1CCCC1)CC(F)(F)C(=O)N2C` [Compound 5, 4-(9-cyclopentyl-7,7-difluoro-5-methyl-6-oxo-6,7,8,9-tetrahydro-5H-pyrimido[4,5-b][1,4]diazepin-2-ylamino)-N-(1-(2-hydroxyethyl)piperidin-4-yl)-3-methoxybenzamide], the IC50 is reported as ≤ 2 nM.
With `CCN1CCC(NC(=O)c2ccc(Nc3ncc4c(n3)N(C3CCCC3)CC(F)(F)C(=O)N4C)c(OC)c2)CC1` [Compound 7, 4-(9-cyclopentyl-7,7-difluoro-5-methyl-6-oxo-6,7,8,9-tetrahydro-5H-pyrimido[4,5-b][1,4]diazepin-2-ylamino)-N-(1-ethylpiperidin-4-yl)-3-methoxybenzamide] the IC50 was > 2 nM.
For `COc1cc(C(=O)N[C@@H]2CCCNC2)ccc1Nc1ncc2c(n1)N(C1CCCC1)CC(F)(F)C(=O)N2C` [Compound 8, (R)-4-(9-cyclopentyl-7,7-difluoro-5-methyl-6-oxo-6,7,8,9-tetrahydro-5H-pyrimido[4,5-b][1,4]diazepin-2-ylamino)-3-methoxy-N-(piperidin-3-yl)benzamide], the IC50 was ≤ 2 nM.
For `COc1cc(C(=O)N[C@H]2CCCNC2)ccc1Nc1ncc2c(n1)N(C1CCCC1)CC(F)(F)C(=O)N2C` [Compound 9, (S)-4-(9-cyclopentyl-7,7-difluoro-5-methyl-6-oxo-6,7,8,9-tetrahydro-5H-pyrimido[4,5-b][1,4]diazepin-2-ylamino)-3-methoxy-N-(piperidin-3-yl)benzamide], the IC50 was ≤ 2 nM.
With `COc1cc(C(=O)NC2CCNCC2)ccc1Nc1ncc2c(n1)N(C1CCCC1)CC(F)(F)C(=O)N2C` [Compound 10, 4-(9-cyclopentyl-7,7-difluoro-5-methyl-6-oxo-6,7,8,9-tetrahydro-5H-pyrimido[4,5-b][1,4]diazepin-2-ylamino)-3-methoxy-N-(piperidin-4-yl)benzamide] the IC50 was ≤ 2 nM.
With `COc1cc(C(=O)NC2CCN(C(=O)CN(C)C)CC2)ccc1Nc1ncc2c(n1)N(C1CCCC1)CC(F)(F)C(=O)N2C` [Compound 11, 4-(9-cyclopentyl-7,7-difluoro-5-methyl-6-oxo-6,7,8,9-tetrahydro-5H-pyrimido[4,5-b][1,4]diazepin-2-ylamino)-N-(1-(2-(dimethylamino)acetyl)piperidin-4-yl)-3-methoxybenzamide] the IC50 was ≤ 2 nM.
With `COc1cc(C(=O)NC2CCN(C(=O)CN3CCCC3)CC2)ccc1Nc1ncc2c(n1)N(C1CCCC1)CC(F)(F)C(=O)N2C` [Compound 12, 4-(9-cyclopentyl-7,7-difluoro-5-methyl-6-oxo-6,7,8,9-tetrahydro-5H-pyrimido[4,5-b][1,4]diazepin-2-ylamino)-3-methoxy-N-(1-(2-(pyrrolidin-1-yl)acetyl)piperidin-4-yl)benzamide] the IC50 was > 2 nM.
For `COc1cc(C(=O)NC2CCCNCC2)ccc1Nc1ncc2c(n1)N(C1CCCC1)CC(F)(F)C(=O)N2C` (stereo not drawn) [Compound 14, N-(Azepan-4-yl)-4-(9-cyclopentyl-7,7-difluoro-5-methyl-6-oxo-6,7,8,9-tetrahydro-5H-pyrimido[4,5-b][1,4]diazepin-2-ylamino)-3-methoxybenzamide], the IC50 was ≤ 2 nM.
In the case of `COc1cc(C(=O)NC2CCCN(C)CC2)ccc1Nc1ncc2c(n1)N(C1CCCC1)CC(F)(F)C(=O)N2C` (stereo not drawn) [Compound 15, 4-(9-cyclopentyl-7,7-difluoro-5-methyl-6-oxo-6,7,8,9-tetrahydro-5H-pyrimido[4,5-b][1,4]diazepin-2-ylamino)-3-methoxy-N-(1-methylazepan-4-yl)benzamide], the IC50 is reported as ≤ 2 nM.
In the case of `CN(C)CCOc1ccc(Nc2ncc3c(n2)N(C2CCCC2)CC(F)(F)C(=O)N3C)cc1` [Compound 17, 9-cyclopentyl-2-(4-(2-(dimethylamino)ethoxy)phenylamino)-7,7-difluoro-5-methyl-8,9-dihydro-5H-pyrimido[4,5-b][1,4]diazepin-6(7H)-one], the IC50 is reported as > 2 nM.
`CN1C(=O)C(F)(F)CN(C2CCCC2)c2nc(Nc3ccc4c(c3)NC(=O)CO4)ncc21` [Compound 18, 6-(9-cyclopentyl-7,7-difluoro-5-methyl-6-oxo-6,7,8,9-tetrahydro-5H-pyrimido[4,5-b][1,4]diazepin-2-ylamino)-2H-benzo[b][1,4]oxazin-3(4H)-one] was tested, and the IC50 was > 2 nM.
`CN1C(=O)C(F)(F)CN(C2CCCC2)c2nc(Nc3ccc4c(c3)NC(=O)C4)ncc21` [Compound 19, 9-cyclopentyl-7,7-difluoro-5-methyl-2-(2-oxoindolin-6-ylamino)-8,9-dihydro-5H-pyrimido[4,5-b][1,4]diazepin-6(7H)-one] was tested, and the IC50 was > 2 nM.
In the case of `CN1C(=O)C(F)(F)CN(C2CCCC2)c2nc(Nc3ccc4[nH]ccc4c3)ncc21` [Compound 20, 2-(1H-Indol-5-ylamino)-9-cyclopentyl-7,7-difluoro-5-methyl-8,9-dihydro-5H-pyrimido[4,5-b][1,4]diazepin-6(7H)-one], the IC50 is reported as > 2 nM.
With `CN1C(=O)C(F)(F)CN(C2CCCC2)c2nc(Nc3ccc4[nH]cc(C5=CCNCC5)c4c3)ncc21` [Compound 21, 9-Cyclopentyl-7,7-difluoro-5-methyl-2-(3-(1,2,3,6-tetrahydropyridin-4-yl)-1H-indol-5-ylamino)-8,9-dihydro-5H-pyrimido[4,5-b][1,4]diazepin-6(7H)-one] the IC50 was > 2 nM.
In the case of `CN1CCC(NC(=O)c2ccc(Nc3ncc4c(n3)N(C3CCCC3)CC(F)(F)C(=O)N4C)c(F)c2)CC1` [Compound 22, 4-(9-Cyclopentyl-7,7-difluoro-5-methyl-6-oxo-6,7,8,9-tetrahydro-5H-pyrimido[4,5-b][1,4]diazepin-2-ylamino)-3-fluoro-N-(1-methylpiperidin-4-yl)benzamide], the IC50 is reported as ≤ 2 nM.
For `CN1CCC(NC(=O)c2ccc(Nc3ncc4c(n3)N(C3CCCC3)CC(F)(F)C(=O)N4C)c(Cl)c2)CC1` [Compound 24, 3-Chloro-4-(9-cyclopentyl-7,7-difluoro-5-methyl-6-oxo-6,7,8,9-tetrahydro-5H-pyrimido[4,5-b][1,4]diazepin-2-ylamino)-N-(1-methylpiperidin-4-yl)benzamide], the IC50 was > 2 nM.
`CN1CCC(NC(=O)c2ccc(Nc3ncc4c(n3)N(C3CCCC3)CC(F)(F)C(=O)N4C)c(OC(F)(F)F)c2)CC1` [Compound 25, 4-(9-Cyclopentyl-7,7-difluoro-5-methyl-6-oxo-6,7,8,9-tetrahydro-5H-pyrimido[4,5-b][1,4]diazepin-2-ylamino)-N-(1-methylpiperidin-4-yl)-3-(trifluoromethoxy)-benzamide] was tested, and the IC50 was > 2 nM.
`Cc1cc(C(=O)NC2CCN(C)CC2)ccc1Nc1ncc2c(n1)N(C1CCCC1)CC(F)(F)C(=O)N2C` [Compound 26, 4-(9-Cyclopentyl-7,7-difluoro-5-methyl-6-oxo-6,7,8,9-tetrahydro-5H-pyrimido[4,5-b][1,4]diazepin-2-ylamino)-3-methyl-N-(1-methylpiperidin-4-yl)benzamide] was tested, and the IC50 was > 2 nM.
For `CCc1cc(C(=O)NC2CCN(C)CC2)ccc1Nc1ncc2c(n1)N(C1CCCC1)CC(F)(F)C(=O)N2C` [Compound 27, 4-(9-Cyclopentyl-7,7-difluoro-5-methyl-6-oxo-6,7,8,9-tetrahydro-5H-pyrimido[4,5-b][1,4]diazepin-2-ylamino)-3-ethyl-N-(1-methylpiperidin-4-yl)benzamide], the IC50 was ≤ 2 nM.
`CCOc1cc(C(=O)NC2CCN(C)CC2)ccc1Nc1ncc2c(n1)N(C1CCCC1)CC(F)(F)C(=O)N2C` [Compound 29, 4-(9-Cyclopentyl-7,7-difluoro-5-methyl-6-oxo-6,7,8,9-tetrahydro-5H-pyrimido[4,5-b][1,4]diazepin-2-ylamino)-3-ethoxy-N-(1-methylpiperidin-4-yl)benzamide] was tested, and the IC50 was > 2 nM.
`CN1CCC(NC(=O)c2ccc(Nc3ncc4c(n3)N(C3CCCC3)CC(F)(F)C(=O)N4C)c(C(F)(F)F)c2)CC1` [Compound 30, 4-(9-cyclopentyl-7,7-difluoro-5-methyl-6-oxo-6,7,8,9-tetrahydro-5H-pyrimido[4,5-b][1,4]diazepin-2-ylamino)-N-(1-methylpiperidin-4-yl)-3-(trifluoromethyl)benzamide] was tested, and the IC50 was > 2 nM.
